Where “and” joins values, the source holds several entries; their conditions need not be identical. Identical values can stand only once.
Target: Transient receptor potential cation channel subfamily A member 1 (Homo sapiens, UniProt O75762)
Test: Antagonist activity at human TRPA1 expressed in HEK293 cells assessed as inhibition of CA-induced increase in calcium influx incubated for 10 mins prior to CA addition by Fluo-4-AM dye based fluorescence assayy

Transient receptor potential cation channel subfamily A member 1, sequence (O75762 whole entry): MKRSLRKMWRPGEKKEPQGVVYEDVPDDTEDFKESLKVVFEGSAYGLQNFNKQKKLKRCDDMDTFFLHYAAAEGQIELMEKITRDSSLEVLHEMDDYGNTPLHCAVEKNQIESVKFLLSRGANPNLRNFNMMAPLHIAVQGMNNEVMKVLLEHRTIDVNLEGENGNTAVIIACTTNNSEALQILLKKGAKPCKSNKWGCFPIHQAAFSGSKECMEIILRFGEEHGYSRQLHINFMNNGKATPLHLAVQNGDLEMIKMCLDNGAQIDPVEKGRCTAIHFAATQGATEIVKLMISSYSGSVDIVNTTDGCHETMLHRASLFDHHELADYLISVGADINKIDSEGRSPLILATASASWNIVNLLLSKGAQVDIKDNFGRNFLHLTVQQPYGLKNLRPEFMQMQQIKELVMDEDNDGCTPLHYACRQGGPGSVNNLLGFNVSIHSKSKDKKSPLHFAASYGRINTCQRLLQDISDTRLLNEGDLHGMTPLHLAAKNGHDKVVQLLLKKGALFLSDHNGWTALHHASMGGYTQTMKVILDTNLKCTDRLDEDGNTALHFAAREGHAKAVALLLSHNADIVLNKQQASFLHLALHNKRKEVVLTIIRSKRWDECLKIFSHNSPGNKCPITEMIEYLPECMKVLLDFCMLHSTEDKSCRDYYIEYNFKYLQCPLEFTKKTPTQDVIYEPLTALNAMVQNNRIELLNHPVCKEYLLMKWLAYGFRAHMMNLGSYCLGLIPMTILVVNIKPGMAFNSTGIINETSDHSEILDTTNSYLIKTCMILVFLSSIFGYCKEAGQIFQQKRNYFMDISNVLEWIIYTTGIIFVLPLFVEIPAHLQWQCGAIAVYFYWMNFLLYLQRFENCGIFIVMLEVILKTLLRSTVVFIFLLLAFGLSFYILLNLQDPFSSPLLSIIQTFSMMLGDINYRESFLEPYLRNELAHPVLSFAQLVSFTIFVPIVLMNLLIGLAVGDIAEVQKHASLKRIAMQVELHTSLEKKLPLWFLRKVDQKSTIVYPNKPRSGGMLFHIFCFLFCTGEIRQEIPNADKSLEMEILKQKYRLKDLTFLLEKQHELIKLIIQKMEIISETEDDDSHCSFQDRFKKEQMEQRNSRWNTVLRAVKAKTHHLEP

SMILES	IC50
O=C(/C=C/c1ccc(Br)cc1)Nc1ccccc1C(=O)O	10 µM
CC(=Cc1ccc(Cl)cc1)C(C)N=O (configuration not stated) [4-(4-chlorophenyl)-3-methylbut-3-en-2-one oxime]	4.47 µM and 4.46 µM

Source: BindingDB's records for doi:10.1016/j.ejmech.2019.02.074 (University of Hull, 2019)
